Reference: ChEMBL document CHEMBL2176943, “Discovery of inhibitors to block interactions of HIV-1 integrase with human LEDGF/p75 via structure-based virtual screening and bioassays” (J Med Chem, 2012)
Active and inactive are the calls of the source. No cut-off for these calls is given here.

Experiments:
[1] = target: Human immunodeficiency virus type 1 integrase (Human immunodeficiency virus 1) (UniProt Q7ZJM1); assay: Inhibition of nuclear translocation of HIV1 EGFP-labeled integrase expressed in human 293T cells at 86.73 uM after 24 hrs by microscopic analysis; assay type: cell-based
[2] = Cytotoxicity against human C8166 cells after 3 days by MTT assay; assay type: cell-based
[3] = Therapeutic index, ratio of CC50 for human C8166 cells to EC50 for HIV-1 3B infected in C8166 cells; assay type: cell-based; conditions: read-out: Ratio CC50/EC50
[4] = target: Human immunodeficiency virus type 1 integrase (Human immunodeficiency virus 1, UniProt Q7ZJM1); assay: Inhibition of HIV1 His6-tagged integrase-human GST tagged LEDGF/p75 (373-442 residues) interaction after 30 mins by AlphaScreen assay
[5] = system: Human immunodeficiency virus 1; assay: Antiviral activity against HIV-1 3B infected in C8166 cells assessed as virus-induced cytopathic effect measuring […] formation after 3 days by microscopy; assay type: functional, organism-based; conditions: Human immunodeficiency virus 1, 3B, C8166, 72 h
[6] = target: Human immunodeficiency virus type 1 integrase (Human immunodeficiency virus 1) (UniProt Q7ZJM1); assay: Inhibition of nuclear translocation of HIV1 EGFP-labeled integrase expressed in human 293T cells at 83.83 uM after 24 hrs by microscopic analysis; assay type: cell-based
[7] = target: Human immunodeficiency virus type 1 integrase (Human immunodeficiency virus 1) (UniProt Q7ZJM1); assay: Inhibition of nuclear translocation of HIV1 EGFP-labeled integrase expressed in human 293T cells at 36.40 uM after 24 hrs by microscopic analysis; assay type: cell-based
[8] = target: Human immunodeficiency virus type 1 integrase (Human immunodeficiency virus 1) (UniProt Q7ZJM1); assay: Inhibition of nuclear translocation of HIV1 EGFP-labeled integrase expressed in human 293T cells at 36 uM after 24 hrs by microscopic analysis; assay type: cell-based

Compound | IC50 [4] [nM] | other results
CC1(C)CC[C@]2(C(=O)O)CC[C@]3(C)C(=CC[C@@H]4[C@@]5(C)CC[C@H](OC(=O)CC(C)(C)C(=O)O)C(C)(C)[C@@H]5CC[C@]43C)[C@@H]2C1 | 5510 | 
COc1ccccc1CC(NC(=O)CCCC[C@]12CCC(C)(C)C[C@H]1C1=CC[C@@H]3[C@@]4(C)CC[C@H](O)C(C)(C)[C@@H]4CC[C@@]3(C)[C@]1(C)CC2)C(=O)O (mixture of isomers) | 4560 | 
O=C(/C=C/c1ccccc1O)c1ccc(O)c(O)c1 | 3670 | 
O=C(/C=C/c1cccc(O)c1O)c1ccc(O)cc1O [2,3,2',4'-TETRAHYDROXYCHALCONE] | 1700 | 
CCOc1cc(/C=C2\SC(=O)N(CC(=O)c3ccccc3)C2=O)c(Br)cc1OCc1ccc(C(=O)O)cc1 |  | inhibition [6]: Active
O=C(/C=C/c1cc(F)cc(F)c1)c1ccc(O)cc1O | 1750 | 
COc1cccc(CC(NC(=O)CCCC[C@]23CCC(C)(C)C[C@H]2C2=CC[C@@H]4[C@@]5(C)CC[C@H](O)C(C)(C)[C@@H]5CC[C@@]4(C)[C@]2(C)CC3)C(=O)O)c1OC (mixture of isomers) | 3220 | 
CC1(C)CC[C@]2(C(=O)O)CC[C@]3(C)C(=CC[C@@H]4[C@@]5(C)CC[C@H](OC(=O)C(=O)O)C(C)(C)[C@@H]5CC[C@]43C)[C@@H]2C1 | 9940 | 
O=C(NCc1cccc([N+](=O)[O-])c1)c1ccc(OCc2ccccc2)cc1O | 3840 | 
O=C(/C=C/c1cc(O)ccc1O)c1ccc(O)cc1O | 3780 | 
Cc1cn([C@H]2C[C@H](N=[N+]=[N-])[C@@H](CO)O2)c(=O)[nH]c1=O [ZIDOVUDINE] |  | selectivity ratio [3]: 473000; EC50 [5]: 8.7 nM
O=C(/C=C/c1ccccc1O)c1cccc(O)c1O | 1610 | 
O=C(/C=C/c1ccccc1O)c1c(O)cc(O)cc1O | 6210 | 

Now from value to molecule, other results behind:

IC50 [4] [nM] | Compound | other results
260 | O=C(/C=C/c1cccc(O)c1O)c1c(O)cc(O)cc1O | inhibition [1]: Active; CC50 at 72 h [2]: 111000 nM; selectivity ratio [3]: 3.76; EC50 [5]: 29600 nM
320 | O=C(/C=C/c1ccccc1Cl)c1ccc(O)cc1O | inhibition [7]: Active; CC50 at 72 h [2]: 8830 nM; selectivity ratio [3]: 4.88; EC50 [5]: 1810 nM
1260 | COc1cc(CC(NC(=O)CCCC[C@]23CCC(C)(C)C[C@H]2C2=CC[C@@H]4[C@@]5(C)CC[C@H](O)C(C)(C)[C@@H]5CC[C@@]4(C)[C@]2(C)CC3)C(=O)O)cc(OC)c1 (mixture of isomers) | 
19 | Cc1nc2ccccc2c(-c2cc(F)c3c(c2C)CCCO3)c1[C@H](OC(C)(C)C)C(=O)O | 
700 | CC1(C)CC[C@]2(C(=O)O)CC[C@]3(C)C(=CC[C@@H]4[C@@]5(C)CC[C@H](OCc6ccccc6)C(C)(C)[C@@H]5CC[C@]43C)[C@@H]2C1 | 
650 | CC1(C)CC[C@]2(CCCCC(=O)NC(Cc3ccccc3Cl)C(=O)O)CC[C@]3(C)C(=CC[C@@H]4[C@@]5(C)CC[C@H](O)C(C)(C)[C@@H]5CC[C@]43C)[C@@H]2C1 (mixture of isomers) | inhibition [8]: Active; CC50 at 72 h [2]: 77500 nM; selectivity ratio [3]: 2.12; EC50 [5]: 36600 nM
550 | O=C(/C=C/c1ccc(O)c(O)c1)O[C@H](Cc1ccc(O)c(O)c1)C(=O)O [ROSMARINIC ACID] | 
1140 | CC1(C)CC[C@]2(C(=O)O)CC[C@]3(C)C(=CC[C@@H]4[C@@]5(C)CC[C@H](OCc6cccc(C(=O)O)c6)C(C)(C)[C@@H]5CC[C@]43C)[C@@H]2C1 | 
